{"source": "patent US8507464B2", "about": "“Phosphoramidate alkylator prodrugs” (Threshold Pharmaceuticals, Inc., priority 2005, dated 2013)", "key": {"[1]": {"experiment": "Solubility in saline at room temperature", "format": "physicochemical", "conditions": "saline or isotonic"}, "NCI-H460 cells [2]": {"tested_on": "NCI-H460 cells", "experiment": "Antiproliferation assay - oxygen dependence", "format": "cell-based, human", "conditions": "Homo sapiens", "text": ". […] The calculated IC50 values (μM) are tabulated in Table Y1 (H460 cells) or Table Y2 (HT29 cells) below."}, "NCI-H460 cells [3]": {"tested_on": "NCI-H460 cells", "experiment": "Antiproliferation assay (Alamar Blue), anoxia vs air"}, "H460 cell line": {"tested_on": "H460 cell line", "experiment": "Anti-proliferation assay, hypoxia vs normoxia (Table 1A)", "conditions": "for IC50: Homo sapiens"}, "spheroids": {"tested_on": "spheroids", "experiment": "Spheroid combination with cisplatin or daunorubicin, clonogenic survival", "format": "cell-based, human", "conditions": "2 h exposure, read-out: IC50 (μM), spheroids, cisplatin combination experiment", "protocol": "The phosphoramidate alkylator prodrug was combined simultaneously with cisplatin or daunorubicin and the spreroids exposed for 2 h to the combination, followed by measurement of clonogenic survival."}, "HT29 xenograft": {"tested_on": "HT29 xenograft", "experiment": "HT-29 xenograft mouse model with CDDP (Example 52)", "format": "in vivo", "conditions": "Group 2; tumor volumes at day 25; vs vehicle group; CDDP in saline IV alone", "protocol": "Female CB17/SCID mice (purchased from Charles River, Cambridge, Mass.), 7-8 weeks of age, were allowed to acclimatize for at least three days, and handled under pathogen-free conditions. Human colon carcinoma cell line HT29 was obtained from the American Type Culture Collection. The cell lines were cultured and harvested as described in Example 47 and inoculated at 3×10^6 cells/animal in the peritoneal subcutaneous space. When the tumors grew to an average volume of 100 mm^3 (day 8), each group of mice (ten per group) was administered, for three weeks, as tabulated in the table below: Compound 25 in saline, administration route—i.p., administrated 2 h before CDDP on the days the combination therapy is scheduled and CDDP (in saline, IV).\nThe body weight and tumor volume were determined as described in Example 47. Data are based on tumor volumes at day 25 when tumors in the vehicle group had reached sufficient size to require that the mice be sacrificed."}, "[4]": {"tested_on": "H460 lung carcinoma spheroids", "experiment": "Spheroid model, clonogenic survival", "conditions": "read-out: IC90 H460 Spheroid 10% O2; 2 h exposure, 10% O2"}, "[5]": {"tested_on": "H460 cells exposed as monolayers", "experiment": "Clonogenic survival of monolayer cells (Example 35)", "conditions": "2 h exposure"}, "[6]": {"tested_on": "HT-29 human colon carcinoma xenograft", "experiment": "HT-29 human colon carcinoma xenograft mouse model (Example 47)", "format": "in vivo", "conditions": "Group 8: 5FU 10 mg/kg; vs vehicle", "protocol": "Female CB17/SCID mice (purchased from Charles River, Cambridge, Mass.), 7-8 weeks of age, were allowed to acclimatize for at least three days, and handled under pathogen-free conditions. Human colon carcinoma cell line HT-29 was obtained from the American Type Culture Collection. The cell lines were cultured in RPMI 1640 media supplemented with 10% fetal bovine serum. Cells were maintained in a 37° C. incubator with 5% CO2. The HT-29 cells were harvested from culture and inoculated at 3×10^6 cells/animal in the peritoneal subcutaneous space. When the tumors grew to an average volume of 100 mm^3 (day 8), each group of 10 mice was administered, for three weeks, vehicle alone (saline and PEG (10 mL/kg each), Group 1), Compound 36 alone (dissolved in 30% cyclodextrin in PBS) at a daily dose of 20, 60, or 200 mg/kg (Groups 2, 3 and 4, respectively), and Compound 36 at a daily dose of 20, 60, and 200 mg/kg given 2-3 hours after a dose of 10 mg/kg of 5FU (in saline) (Group 5, 6 and 7, respectively) and compared to a group receiving only 5FU at 10 mg/kg (Group 8) as tabulated below.\nThe body weight of each mouse was recorded twice per week. Growth of each xenograft was monitored by externally measuring tumors in two dimensions using a digital caliper twice per week. Tumor volume (V) was determined by the following equation: V=(L×W^2)/2, where L is the length and W is the width of a xenograft. Tumor volumes were measured twice weekly."}, "[7]": {"conditions": "25 mg/kg i.p., 10% PEG, CD-1 mice"}}, "note": "Like-named read-outs stand apart in the source and are kept apart here.", "data": [{"smiles": "Cn1c([N+](=O)[O-])cnc1COP(=O)(NCCCl)NCCCl", "note": "[Compound 10]", "values": [{"measurement": "solubility", "setting": "[1]", "value": 10000, "unit": "µg/mL"}, {"measurement": "IC50", "setting": "NCI-H460 cells [2]; NCI-H460, read-out: IC50 in H460 cells, 0.1% O2", "value": "> 100", "unit": "µM"}, {"measurement": "IC50", "setting": "NCI-H460 cells [2]; NCI-H460, read-out: IC50 in H460 cells, 0.6% O2", "value": "> 100", "unit": "µM"}, {"measurement": "IC50", "setting": "NCI-H460 cells [2]; NCI-H460, read-out: IC50 in H460 cells, 1% O2", "value": "> 100", "unit": "µM"}, {"measurement": "IC50", "setting": "NCI-H460 cells [2]; NCI-H460, read-out: IC50 in H460 cells, Air", "value": "> 100", "unit": "µM"}, {"measurement": "IC50", "setting": "NCI-H460 cells [2]; NCI-H460, read-out: IC50 in H460 cells, N2", "value": "> 100", "unit": "µM"}, {"measurement": "IC50", "setting": "NCI-H460 cells [3]; Homo sapiens, NCI-H460, 2 h, read-out: IC50 H460 Air, air, 2 h exposure", "value": "> 100", "unit": "µM"}, {"measurement": "IC50", "setting": "NCI-H460 cells [3]; Homo sapiens, NCI-H460, 2 h, read-out: IC50 H460 Anoxia, anoxia, 2 h exposure", "value": "≥ 100", "unit": "µM"}, {"measurement": "IC50", "setting": "H460 cell line; NCI-H460, read-out: Hypoxia P (proliferation IC50)", "value": 100, "unit": "µM"}, {"measurement": "IC50", "setting": "H460 cell line; NCI-H460, read-out: Normoxia P (proliferation IC50)", "value": "> 100", "unit": "µM"}, {"measurement": "HCR P", "setting": "H460 cell line; ratio of IC50 in normoxia and hypoxia", "value": ">1"}]}, {"smiles": "N.N.[Cl][Pt][Cl]", "note": "[Cisplatin, cis-Diaminedichloroplatinum (II), reference compound]", "values": [{"measurement": "IC50", "setting": "spheroids", "value": 14, "unit": "µM"}, {"measurement": "% Inhibition vs Group 1", "setting": "HT29 xenograft", "value": 24.2, "unit": "%"}, {"measurement": "IC90", "setting": "[4]", "value": 8, "unit": "µM"}, {"measurement": "IC90", "setting": "[5]; read-out: IC90 H460 Monolayer 0.6% O2, 0.6% O2", "value": 7.7, "unit": "µM"}, {"measurement": "IC90", "setting": "[5]; read-out: IC90 H460 Monolayer Air, Air", "value": 7.3, "unit": "µM"}, {"measurement": "IC90", "setting": "[5]; read-out: IC90 H460 Monolayer N2, N2", "value": 4.2, "unit": "µM"}]}, {"smiles": "O=c1[nH]cc(F)c(=O)[nH]1", "note": "[Compound 5FU, 5-fluoro-2,4(1H,3H)-pyrimidinedione, reference compound]", "values": [{"measurement": "% Inhibition vs Group 1", "setting": "[6]", "value": 38.7, "unit": "%"}]}, {"smiles": "CC(OP(=O)(NCCBr)NCCBr)c1ncc([N+](=O)[O-])n1C", "note": "(centres unmarked) [Compound 85]", "values": [{"measurement": "Cmax", "setting": "[7]", "value": 3930, "unit": "ng/mL"}, {"measurement": "Tmax", "setting": "[7]", "value": 5.00, "unit": "min"}, {"measurement": "half-life", "setting": "[7]", "value": 10.0, "unit": "min"}, {"measurement": "IC50", "setting": "NCI-H460 cells [3]; read-out: IC50 H460 Anoxia, anoxia, 2 h exposure", "value": 0.7, "unit": "µM"}]}, {"smiles": "Cn1c([N+](=O)[O-])cnc1COP(=O)(NCCBr)NCCBr", "note": "[Compound 73]", "values": [{"measurement": "solubility", "setting": "[1]", "value": 10000, "unit": "µg/mL"}]}]}
